Data from US20080051387A1, “TETRAHYDROPYRIDO[3,4-D]PYRIMIDINES AND RELATED ANALOGUES” (priority 2006, published 2008).

Target: T1, chimeric human H3 receptor (Homo sapiens, UniProt Q9Y5N1)
T1 construct: rat Galpha-i2 (Gnai2, rat); made in house; host or cells: Sf9 insect cells (baculovirus); P2 membranes
Assay: Chimeric human H3 receptor GTP binding assay (agonist-stimulated GTP-gamma35S binding, Example 7)
Type: biochemical
Conditions: P2 membranes of Sf9 cells, 1 μM histamine as agonist, Ki from IC50 by Cheng-Prusoff; read-out: Ki
From the text: This Example illustrates a representative assay for evaluating agonist-stimulated GTP-gamma^35S binding (“GTP binding”) activity. […] This agonist-stimulated GTP binding activity can also be used to detect partial agonism mediated by antagonist compounds. A compound analyzed in this assay is referred to herein as a “test compound.”
Four independent baculoviral stocks (one directing the expression of the chimeric human H3 receptor and three directing the expression of each of the three subunits of a heterotrimeric G-protein) are used to infect a culture of Sƒ9 cells as described above. P2 membranes are prepared as described above, and agonist-stimulated GTP binding on the P2 membranes is assessed using histamine (Sigma Chemical Co., St. Louis, Mo.) as agonist in order to ascertain that the receptor/G-protein-alpha-beta-gamma combination(s) yield a functional response as measured by GTP binding. P2 membranes are resuspended by Dounce homogenization (tight pestle) in GTP binding assay buffer (50 mM Tris pH 7.4, 120 mM NaCl, 5 mM MgCl2, 2 mM EGTA, 1 mg/ml BSA, 0.2 mg/ml bacitracin, 0.02 mg/ml aprotinin, 0.01 mg/ml saponin, 10 μM GDP) and added to assay tubes at a concentration of 35 μg protein/reaction tube. After adding increasing doses of histamine at concentrations ranging from 10-12 M to 10^−5 M, reactions are initiated by the addition of 125 pM GTP-gamma^35S (PERKIN ELMER; Boston, Mass.) with a final assay volume of 0.20 ml. In competition experiments, non-radiolabeled test compounds are added to separate reactions at concentrations ranging from 10^−10 M to 10^−6 M along with 1 μM histamine to yield a final volume of 0.20 ml.
Neutral antagonists are antagonists that are substantially free of inherent agonist activity, and include those test compounds that reduce the histamine-stimulated GTP binding activity towards, but not below, baseline levels. In contrast, in the absence of added histamine, inverse agonists reduce the GTP binding activity of the receptor-containing membranes below baseline.
After a 60-min incubation at room temperature, reactions are terminated by vacuum filtration over WHATMAN GF/C filters (pre-soaked in wash buffer, 0.1% BSA) followed by washing with ice-cold wash buffer (50 mM Tris pH 7.4, 120 mM NaCl). The amount of receptor-bound (and thereby membrane-bound) GTP-gamma^35S is determined by measuring the filter-bound radioactivity, preferably by liquid scintillation spectrometry of the washed filters. Non-specific binding is determined in parallel assays including 10 μM unlabeled GTP-gammaS and typically represents less than 5 percent of total binding. Data is expressed as percent above basal (baseline). The results of GTP binding experiments are analyzed using SIGMAPLOT software (SPSS Inc., Chicago, Ill.). IC50 values are calculated by non-linear regression analysis of dose-response curves using Kaleidograph (Synergy Software, Reading, Pa.).
Alternatively the data is analyzed as follows. First, the average bound radioactivity from negative control wells (no agonist) is subtracted from the bound radioactivity detected for each of the other experimental wells. Second, average bound radioactivity is calculated for the positive control wells (agonist wells). Then, percent inhibition for each compound tested is calculated using the equation: [formula]
Calculated IC50 values are converted to Ki values by the Cheng-Prusoff correction (Cheng and Prusoff (1973) Biochem. Pharmacol. 22(23):3099-3108). Accordingly, the following equation: Ki=IC50/(1+[L]/EC50) is used, where [L] is the histamine concentration in the GTP binding assay, and EC50 is the concentration of histamine producing a 50% response, as determined by a dose-response analysis using concentrations of histamine ranging from 10^−10 M to 10^−6 M. […]

T1 sequence (Q9Y5N1 with tags, fused parts or gaps): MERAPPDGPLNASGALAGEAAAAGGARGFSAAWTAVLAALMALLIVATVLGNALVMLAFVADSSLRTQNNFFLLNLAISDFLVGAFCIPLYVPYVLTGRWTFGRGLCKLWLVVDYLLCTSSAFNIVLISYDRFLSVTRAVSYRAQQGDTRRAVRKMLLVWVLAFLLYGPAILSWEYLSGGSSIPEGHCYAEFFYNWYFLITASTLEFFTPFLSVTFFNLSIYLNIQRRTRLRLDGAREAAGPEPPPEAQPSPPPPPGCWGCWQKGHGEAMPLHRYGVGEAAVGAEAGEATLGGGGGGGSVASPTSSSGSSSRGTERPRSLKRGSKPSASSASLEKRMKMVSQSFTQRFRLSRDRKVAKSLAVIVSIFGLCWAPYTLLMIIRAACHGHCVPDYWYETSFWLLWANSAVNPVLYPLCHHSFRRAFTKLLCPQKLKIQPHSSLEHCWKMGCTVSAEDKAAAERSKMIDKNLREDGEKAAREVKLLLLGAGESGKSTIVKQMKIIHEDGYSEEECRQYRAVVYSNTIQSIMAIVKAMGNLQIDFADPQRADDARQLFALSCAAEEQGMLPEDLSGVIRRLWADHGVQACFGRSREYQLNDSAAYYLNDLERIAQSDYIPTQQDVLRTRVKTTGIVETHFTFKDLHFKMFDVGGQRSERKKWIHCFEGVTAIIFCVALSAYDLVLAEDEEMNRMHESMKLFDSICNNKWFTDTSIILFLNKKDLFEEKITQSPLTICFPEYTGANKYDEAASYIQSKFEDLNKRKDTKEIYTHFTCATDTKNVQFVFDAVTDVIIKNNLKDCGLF

| Ki [nM] | Structure (SMILES) |
| --- | --- |
| < 1000 | c1nc(N2CCN(C3CCC3)CC2)nc2c1CN(C1CCC1)CC2 [Compound 609, 6-cyclobutyl-2-(4-cyclobutylpiperazin-1-yl)-5,6,7,8-tetrahydropyrido[4,3-d]pyrimidine] |
| < 1000 | CC(=O)c1ccc(N2CCc3nc(N4CCN(C5CCC5)CC4)ncc3C2)nc1 [Compound 610, 1-{6-[2-(4-cyclobutylpiperazin-1-yl)-7,8-dihydropyrido[4,3-d]pyrimidin-6(5H)-yl]pyridin-3-yl}ethanone] |
| < 1000 | CNC(=O)c1ccc(N2CCc3nc(N4CCN(C5CCC5)CC4)ncc3C2)nc1 [Compound 648, 6-[2-(4-cyclobutylpiperazin-1-yl)-7,8-dihydropyrido[4,3-d]pyrimidin-6(5H)-yl]-N-methylnicotinamide] |
